According to PubChem BioAssay AID1918958 (Molecular Pharmacology Branch, DTP, NCI, 2023):
“And” between values parts separate entries of the source, which are not always exact repeats. Equal entries are not always repeated.

Tested on: NCI-H196 complex spheroid viability
Experiment: Anticancer human tumor NCI-H196 cell line growth inhibition [LSD1];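 also: spheroids exposed to agents for 7 days before readout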;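 as to viability, T/C: 100% = DMSO vehicle control viability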
Conditions: for viability, T/C: stronger effect = lower value; for IC50: curve of compound
Excerpt: Multicellular complex tumor spheroid response to LSD1 Inhibitor Iadademstat in combination with a variety of drugs and investigational agents in selected tumor cell lines
The current study was undertaken to assess response to LSD1 inhibitors in combination with standard-of-care drugs and investigational agents in solid tumor complex spheroid models as well as in the K-562 leukemia. Complex spheroids include a stromal component modeled by human endothelial cells (HUVEC) and fibroblasts modeled by human mesenchymal stem cells (MSCs). The concentration ranges selected for each drug and investigational agent were based upon clinically achievable concentrations if the clinical Cmax of the agent was known.
Compounds. The drugs and investigational agents used in this study are listed on Table 1. All of the agents used, including staurosporine (NSC755774) and gemcitabine (NSC613327), were obtained from the Developmental Therapeutics Program, NCI. FDA-approved anticancer drugs are available from the NCI at http://dtp.nci.nih.gov/branches/dscb/oncology_drugset_explanation.html. Drugs and investigational agents were >95% pure by proton nuclear magnetic resonance (NMR) and liquid chromatography/mass spectrometry (LC/MS). Stock solutions were prepared at 400x in DMSO, stored at -70 degrees C, and diluted in fresh medium prior to their use. The final concentration of DMSO in cell culture wells never exceeded 0.25% (v/v). The FDA-approved anticancer drug set is available from the Developmental Therapeutics Program at https://dtp.cancer.gov/organization/dscb/obtaining/available_plates.htm. All drugs and investigational agents were tested over a range starting from a high concentration at or near the clinical Cmax and decreasing in half-log increments. If the clinical Cmax for an agent had not been determined, the highest concentration tested was 10 microM.
Cell Lines. The patient-derived cancer cell (PDC) lines: 292921-168-R-J2-PDC, K24384-001-R-PDC, and 521955-158-R2-J5-PDC pancreatic carcinomas, 556581-035-R-J1 ovarian carcinoma, 324938-238-R-J1-PDC, 855422-203-R-J1-PDC and 883617-216-R-J1-PDC urothelial bladder carcinomas, 743489-274-T-PDC renal cell carcinoma, 138582-R-J1 Merkel cell tumor, K60290-347-R-J1 and K57222-313-R-J1-PDC glioblastomas, 653999-131-R-J2-PDC, LG0703-F948-PDC, and 349418-098-R-PDC non-small cell lung carcinomas, 885512-296-R-J2-PDC, 171881-019-R-J1-PDC breast carcinomas and 186277-243-T-J2-PDC and 233499-124-R-J2-PDC colon carcinomas were obtained from the NCI Patient-Derived Models Repository (PDMR, https://pdmr.cancer.gov). The established cell lines NCI/ADR-RES (RRID:CVCL_14520 and OVCAR-5 (RRID:CVCL_1628) ovarian carcinomas, 786-O (RRID:CVCL_1051) and A498 (RRID:CVCL_A498) renal cell carcinoma, NCI-H211 (ATCC, cat. CRL-5824; RRID:CVCL_1529), NCI-H196 (ATCC, cat. CRL-5823, RRID:CVCL_1509), SW 1271 (ATCC, cat. CRL-2177, RRID:CVCL_1716) and NCI-H1876 (ATCC, cat. CRL-5902, RRID:CVCL_1503) small cell lung carcinomas, MDA-MB-231 (RRID:CVCL_0062) and MDA-MB-468 (RRID:CVCL_0419)breast carcinomas (10-12). Pooled donor human umbilical vein endothelial cells (HUVEC, Lonza, cat. CC-2519) and human mesenchymal stem cells (hMSC, Lonza, cat. PT-2501) were purchased from Lonza (Walkersville, MD).
Cell Culture. All cells were maintained in an incubator at 37 degrees C and 5% CO2 with 95% humidity. The PDC lines were cultured according to standard operating procedures established by the NCI PDMR (https://pdmr.cancer.gov). Briefly all PDCs were thawed and cultured in Matrigel-coated flasks prepared with a working solution of 1X Ham's F-12 nutrient mix, without supplementation (Invitrogen, Waltham, MA, cat. 11765054), 100 U/mL penicillin-streptomycin (Invitrogen, cat. 15140122), and 2.5% Matrigel (Corning Inc., Corning, NY, cat. 354248) for the first three passages. […]

| IC50 | Compound | viability, T/C (compound 0.000316 µM) | viability, T/C (compound 0.001 µM) | viability, T/C (compound 0.00316 µM) | viability, T/C (compound 0.01 µM) | viability, T/C (compound 0.0316 µM) | viability, T/C (compound 0.1 µM) | viability, T/C (compound 0.316 µM) | viability, T/C (compound 1 µM) | viability, T/C (compound 3.16 µM) | viability, T/C (compound 10 µM) | viability, T/C (compound 0.00949 µM) | viability, T/C (compound 0.03 µM) | viability, T/C (compound 0.0949 µM) | viability, T/C (compound 0.3 µM) | viability, T/C (compound 0.949 µM) | viability, T/C (compound 3 µM) | viability, T/C (compound 0.000949 µM) | viability, T/C (compound 0.003 µM) |
| --- | --- | --- | --- | --- | --- | --- | --- | --- | --- | --- | --- | --- | --- | --- | --- | --- | --- | --- | --- |
| 0.531 nM and 0.44 nM | CC(C)CC(NC(=O)C(Cc1ccccc1)NC(=O)c1cnccn1)B(O)O (configuration not stated) | 86.3% and 68.7% | 5.76% and 3.52% | 4.42% and 2.33% | 2.79% and 2.47% | 2.25% and 1.91% | 0.92% and 0.81% | – | – | – | – | – | – | – | – | – | – | – | – |
| 22 nM and 12.6 nM | CC(C)CC(NC(=O)CNC(=O)c1cc(Cl)ccc1Cl)B1OC(=O)CC(CC(=O)O)(C(=O)O)O1 (configuration not stated) | 108% and 104% | 113% and 107% | 103% and 92% | 83.3% and 57.1% | 34.6% and 20.3% | 6.61% and 4.84% | – | – | – | – | – | – | – | – | – | – | – | – |
| > 10000 nM | CC(C)c1c(-c2ccccc2)nc2c(C#N)c[nH]n2c1=O | – | – | – | – | 107% and 96.4% | 108% and 100% | 98.3% and 93.8% | 101% and 91% | 99.7% and 94.1% | 88.7% and 84.2% | – | – | – | – | – | – | – | – |
| 5620 nM and 6290 nM | CC1(C)CCC(CN2CCN(c3ccc(C(=O)NS(=O)(=O)c4ccc(NCC5CCOCC5)c([N+](=O)[O-])c4)c(Oc4cnc5[nH]ccc5c4)c3)CC2)=C(c2ccc(Cl)cc2)C1 | – | – | – | – | 99.4% and 101% | 104% and 99.2% | 94.9% and 98.7% | 103% and 93.7% | 86.4% and 94.3% | 13% and 20.1% | – | – | – | – | – | – | – | – |
| 724 nM and 543 nM | CC1COCCN1c1cc(-c2ccnn2C)c2ccnc(-c3ccn[nH]3)c2n1 (configuration not stated) | – | – | 77.7% and 75.2% | 77.9% and 70% | 64.6% and 70% | 65.4% and 57.1% | 55.8% and 53.1% | 47.5% and 46.9% | – | – | – | – | – | – | – | – | – | – |
| > 10000 nM | CC1COCCN1c1cc(C2(S(C)(=N)=O)CC2)nc(-c2ccnc3[nH]ccc23)n1 (configuration not stated) | – | – | – | – | 96.2% and 97.2% | 100% and 94.8% | 91.8% and 98.8% | 84.6% and 84.2% | 77.8% and 76.2% | 72.7% and 74.6% | – | – | – | – | – | – | – | – |
| > 3000 nM | CCN(c1cc(-c2ccc(CN3CCOCC3)cc2)cc(C(=O)NCc2c(C)cc(C)[nH]c2=O)c1C)C1CCOCC1 | – | – | – | – | – | – | – | – | – | – | 95.5% and 97.5% | 103% and 95.3% | 92.9% and 110% | 93.9% and 107% | 101% and 113% | 108% and 100% | – | – |
| > 100 nM | CC[C@@]1(O)C(=O)OCc2c1cc1n(c2=O)Cc2cc3c(CN(C)C)c(O)ccc3nc2-1 | 98.3% and 97.6% | 99% and 93.1% | 95.1% and 99.2% | 109% and 97.3% | 110% and 115% | 106% and 102% | – | – | – | – | – | – | – | – | – | – | – | – |
| 10.1 nM and 8.88 nM | CCc1c2c(nc3ccc(O)cc13)-c1cc3c(c(=O)n1C2)COC(=O)[C@]3(O)CC | – | – | – | – | – | – | – | – | – | – | 52.9% and 47.5% | 2.96% and 3.28% | 1.29% and 0.86% | 1.52% and 0.88% | – | – | 99.5% and 104% | 103% and 96.6% |
| > 3000 nM | COc1cc(C2c3cc4c(cc3C(OC3OC5COC(C)OC5C(O)C3O)C3COC(=O)C23)OCO4)cc(OC)c1O (configuration not stated) | – | – | – | – | – | – | – | – | – | – | 98.3% and 98.5% | 99.7% and 101% | 98.6% and 112% | 108% and 112% | 90.5% and 81.5% | 65.7% and 59.9% | – | – |
| > 1000 nM | COc1cc(Nc2ncc3c(n2)-c2ccc(Cl)cc2C(c2c(F)cccc2OC)=NC3)ccc1C(=O)O | – | – | 96.3% and 91.4% | 103% and 105% | 114% and 99.4% | 119% and 109% | 132% and 120% | 118% and 121% | – | – | – | – | – | – | – | – | – | – |
